Test results: BindingDB's records for patent US11725000 (National Institute of Biological Sciences, Beijing, 2023)
pEC50: −log10 of the molar value.

molecular target: T1, Succinate dehydrogenase [ubiquinone] iron-sulfur subunit, mitochondrial (Homo sapiens, UniProt P21912); assay: Apoptosis Inhibition Assay
T1 sequence (P21912 whole entry): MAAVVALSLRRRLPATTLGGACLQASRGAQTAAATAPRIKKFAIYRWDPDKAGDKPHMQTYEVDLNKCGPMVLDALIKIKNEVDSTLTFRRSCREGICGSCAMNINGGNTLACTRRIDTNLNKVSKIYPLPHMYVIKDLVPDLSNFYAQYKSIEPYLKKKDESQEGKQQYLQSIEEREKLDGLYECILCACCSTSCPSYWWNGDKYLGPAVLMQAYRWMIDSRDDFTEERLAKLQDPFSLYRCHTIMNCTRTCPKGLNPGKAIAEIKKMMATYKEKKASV
From the text: In order to identify the target protein of tTC09 apoptosis inhibitors, we synthesized two sets of probes for target identification based on the SAR study. The first set of probes was designed for direct activity based protein profiling (ABPP) with biotin tag linked at different site. […] TC09 apoptosis inhibitors could stabilize the mitochondrial respiratory chain after Bim/tBid overexpression and help maintain the normal function of mitochondria. A second set of probes with a terminal alkyne group designed for click-reaction-assisted ABPP were also prepared.

pEC50 | SMILES
5.00 to 6.00 | CS(=O)(=O)c1nc(-c2cccs2)cc(C(F)(F)F)n1 [US11725000, Compound 1]
6.30 | O=C(O)CC[S+]([O-])c1nc(-c2cccs2)cc(C(F)(F)F)n1 (stereo not given) [US11725000, Compound 28]
5.31 | CCOC(=O)CC[S+]([O-])c1nc(-c2cccs2)cc(C(F)(F)F)n1 (stereo not given) [US11725000, Compound 30]
6.98 | CCOC(=O)CCS(=O)(=O)c1nc(-c2cccs2)cc(C(F)(F)F)n1 [US11725000, Compound 29]
5.15 | N#Cc1ccccc1C[S+]([O-])c1nc(-c2cccs2)cc(C(F)(F)F)n1 (stereo not given) [US11725000, Compound 14]
5.94 | [O-][S+](Cc1cc(F)cc(F)c1)c1nc(-c2cccs2)cc(C(F)(F)F)n1 (stereo not given) [US11725000, Compound 19]
7.24 | O=S(=O)(Cc1ccc2c(ccc[n+]2[O-])c1)c1nc(-c2cccs2)cc(C(F)(F)F)n1 [US11725000, Compound 23]
5.35 | C[S+]([O-])c1nc(Cl)cc(-c2cccs2)n1 (stereo not given) [US11725000, Compound 33]
7.16 | O=C1CCCN1CC[S+]([O-])c1nc(-c2cccs2)cc(C(F)(F)F)n1 (stereo not given) [US11725000, Compound 25]
5.85 | O=S(=O)(Cc1ccc([N+]2([O-])CCOCC2)cc1)c1nc(-c2cccs2)cc(C(F)(F)F)n1 [US11725000, Compound 22]
7.89 | [O-][S+](CCc1ccccc1)c1nc(-c2cccs2)cc(C(F)(F)F)n1 (stereo not given) [US11725000, Compound 27]
5.20 | N#Cc1ccccc1CS(=O)(=O)c1nc(-c2cccs2)cc(C(F)(F)F)n1 [US11725000, Compound 13]
7.19 | COC(=O)CCC[S+]([O-])c1nc(-c2cccs2)cc(C(F)(F)F)n1 (stereo not given) [US11725000, Compound 32]
5.66 | [O-][S+](CC1CC1)c1nc(-c2cccs2)cc(C(F)(F)F)n1 (stereo not given) [US11725000, Compound 10]
5.38 | CCCS(=O)(=O)c1nc(-c2cccs2)cc(C(F)(F)F)n1 [US11725000, Compound 4]
6.59 | [O-][S+](Cc1ccc(-c2ccccc2)cc1)c1nc(-c2cccs2)cc(C(F)(F)F)n1 (stereo not given) [US11725000, Compound 20]
5.45 | N#Cc1cccc(C[S+]([O-])c2nc(-c3cccs3)cc(C(F)(F)F)n2)c1 (stereo not given) [US11725000, Compound 15]
6.96 | [O-][S+](Cc1ccc2ncccc2c1)c1nc(-c2cccs2)cc(C(F)(F)F)n1 (stereo not given) [US11725000, Compound 24]
5.93 | CCC[S+]([O-])c1nc(-c2cccs2)cc(C(F)(F)F)n1 (stereo not given) [US11725000, Compound 5]
5.18 | O=S(=O)(Cc1ccccc1)c1nc(-c2cccs2)cc(C(F)(F)F)n1 [US11725000, Compound 11]
5.94 | O=S(=O)(Cc1cc(F)cc(F)c1)c1nc(-c2cccs2)cc(C(F)(F)F)n1 [US11725000, Compound 18]
6.00 | C#Cc1cc(-c2cccs2)nc(S(C)(=O)=O)n1 [US11725000, Compound 35]
7.03 | O=S(=O)(CCc1ccccc1)c1nc(-c2cccs2)cc(C(F)(F)F)n1 [US11725000, Compound 26]
5.46 | [O-][S+](Cc1ccccc1)c1nc(-c2cccs2)cc(C(F)(F)F)n1 (stereo not given) [US11725000, Compound 12]
6.09 | Cc1cc(-c2cccs2)nc(S(C)(=O)=O)n1 [US11725000, Compound 34]
